Data set [1] can be described thus: Diversion test in limestone cores. As to conditions: 65.5° C., SDA fluid 5% HCl. The protocol: Diversion: Tests were completed with one-inch diameter and 4 inch length cores of Indiana Limestone. The initial permeability of each was determined with 3% NaCl brine in both the production and treatment directions prior to treatment with the gelled acid fluid. Then the gelled fluid was pumped at a constant pressure of about […] in the treatment direction. The time for acid break-through was also recorded. All tests were completed at 65.5° C. and constant pressure. Three cores were used to test for diversion in each case; two cores were about 18 to about 24 md and 1 core was about 45 to about 60 md. The initial and final permeabilities were determined. After the tests, all cores were CT scanned, cross sectional view, to visualize the wormholing.

Another data set has as its system Skeletonema Costatum. Kind of data set: OSPAR/HOCNF aquatic toxicity test, Skeletonema Costatum. Type of data set: in vivo. The source says: (§1) The bioaccumulation testing was done according to Organization of Economic Co-operation and Development, Paris, (OECD) Method 117. The biodegradation tests were done according to OECD 306. The toxicity tests were done according to the protocol required for application in the North Sea as recommended by OSPAR (the Oslo Paris Commission) for completion of HOCNF (Harmonized Offshore Chemical Notification Format) requirements. The methods are those in effect as of August, 2003, and the MSDS data and public health, safety and environment data given below are as of August, 2003.
(§2) However, in addition to the excellent toxicity results shown in Table 2, in further OSPAR tests, 2-butanoneoxime had NOEC (No Observable Effect Concentration) values of 8.9 mg/L for Acartia tonsa (48 hours), 1000 mg/L for Scophthalamus maximus juvenile (96 hours), and 99.7 mg/L for Skeletonema Costatum (72 hours), and the 15 day BOD was 6.5%.

Data set [2] in a line: Bioaccumulation (Log Pow), OECD Method 117. Type of data set: physicochemical. As to conditions: component in aqueous composition of Table 2.
Text: as §1

In data set [3] the test system is Scophthalamus maximus juvenile. The experiment in a line: OSPAR/HOCNF aquatic toxicity test, Scophthalamus maximus juvenile. Type of data set: in vivo.
Text: as §1, §2

In a further data set the test system is Acartia tonsa. The experiment in a line: OSPAR/HOCNF aquatic toxicity test, Acartia tonsa. It counts as in vivo.
Text: as §1, §2

Data set [4] in a line: OSPAR/HOCNF aquatic toxicity test, Acartia tonsa. As to conditions: Acartia tonsa, in vivo; 48 hr; read-out: Acartia tonsa LC 50 48 hr. It counts as in vivo.
Text: as §1, §2

A short description of data set [5]: Biodegradation (BOD), OECD 306. As to conditions: 28 day.
Text: as §1

Data set [6] is described as follows: Acid spending tests with residue analysis at 121° C. As to conditions: 6.89 MPa, six hours.
Experimental: Acid spending tests were designed and implemented to analyze for residue for spending tests completed at 121° C. These tests were done with amounts chosen such that not all the limestone could be dissolved. […] Reducing agents and reducing agent precursors were evaluated and compared with hydrazinium hydrochloride. Indiana Limestone was crushed and approximately 25 grams of the limestone chips were placed in ajar that would fit a small autoclave. The gelled acid (2.25-ml of gelled acid solution per gram of chips) was added to the limestone chips, stirred to mix well, placed in the autoclave, pressurized to 6.89 mPa, heated to 121° C. and maintained for six hours. At the conclusion of the test, the autoclave was cooled and depressurized. The jar and contents were removed for examination and analysis.
The spent gelled acid was poured through a strainer to observe the fluid and to determine whether the gel was broken. The chips were also rinsed with deionized water to remove gel and residue from the chips, which were examined and then dried and the final weight determined. All residues were rinsed from the jar and chips, combined, and filtered through a pre-weighed Whatman 541 filter paper. The filter paper was dried to a stable weight to obtain the residue weight.
Another data set deals with Abra alba. The experiment in a line: OSPAR/HOCNF toxicity test, Abra alba. It counts as in vivo. The following applies: printed in the column headed Scophthalamus maximus juvenile EC 50 96 hr.
Text: as §1

The conditions of data set [7]: MSDS and public data as of August, 2003; cited from earlier work.
Data set [8] is described as follows: Iron reduction as a function of HCl spending. The following applies: reagent 2.00%. On the procedure: Iron Reduction Performance: All solutions were prepared as indicated using about 0.5% by volume of a concentrate having about 40 weight percent FeCl3, and analyses were done with a HACH 2000 calorimeter, obtained from Hach Company, Loveland, Colo. Standard analyses were as described in the “Water Analyses Handbook,” Hach Company. Total iron was obtained by the FerroZine procedure by form ation of a purple complex observable at 562 nm. The ferrous iron content was determined by the phenanthroline complex procedure determined at 510 nm. An orange complex is formed which is proportional to the iron content. For each analysis, samples of the test solution were taken and diluted 1:100 with water and the appropriate, premeasured reagent pillows were added to the solution. Measurements were determined calorimetrically employing standards for the analyses. For ferrous content, analyses were made quickly to prevent oxidation due to air. Total iron required 5 minutes reaction time. If ferric content was needed, the content was obtained by difference.
The selected iron reducing agent should […] reduce the ferric iron in acid solutions. […] For each of these tests 2.0% of an approximately 10 to 12% aqueous solution or reducing agent or reducing agent precursor was evaluated. This represents approximately twice the concentration to adequately reduce the quantity of Fe^+3 present.

Data set [9] in a line: Iron reduction performance: effect of pH and reagent concentration.
For data set [10] the following is noted: HPLC Method OECD 117; cited from earlier work.
For data set [11] the following is noted: OECD 306B, seawater; cited from earlier work.
The mark [12] stands for this setting: Core 2 (highest permeability core).
Where [13] appears, read: Test 2: 90% Spent 15% HCl + 0.50% FeCl3.
[14] abbreviates: Test 3: 95% Spent 15% HCl + 0.50% FeCl3.
Setting [15] is: Test 4: 99% Spent 15% HCl + 0.50% FeCl3.
Setting [16] is: Test 5: 99.5% Spent 15% HCl + 0.50% FeCl3.
Where [17] appears, read: Test 1: DI water + 0.50% FeCl3 (pH 2.03), reagent concentration 0.50%.
[18] abbreviates: Test 1: DI water + 0.50% FeCl3 (pH 2.03), reagent concentration 1.00%.
[19] abbreviates: Test 1: DI water + 0.50% FeCl3 (pH 2.03), reagent concentration 1.25%.
Setting [20] is: Test 2: 15% HCl + 0.50% of a 40% FeCl3 Aqueous Solution, reagent concentration 0.50%.
[21] abbreviates: Test 2: 15% HCl + 0.50% of a 40% FeCl3 Aqueous Solution, reagent concentration 1.00%.
Setting [22] is: Test 2: 15% HCl + 0.50% of a 40% FeCl3 Aqueous Solution, reagent concentration 1.25%.
The mark [23] stands for this setting: Test 2: 15% HCl + 0.50% of a 40% FeCl3 Aqueous Solution, reagent concentration […].
Where [24] appears, read: Test 3: 50% water/CaCl2 + 10% 15% HCl + 0.50% FeCl3, reagent concentration 0.50%.
The mark [25] stands for this setting: Test 3: 50% water/CaCl2 + 10% 15% HCl + 0.50% FeCl3, reagent concentration 1.00%.
The mark [26] stands for this setting: Test 3: 50% water/CaCl2 + 10% 15% HCl + 0.50% FeCl3, reagent concentration 1.25%.
Where [27] appears, read: Test 1: DI water + 0.50% FeCl3 (pH 2.03), reagent concentration 1.50%.
Setting [28] is: Test 1: DI water + 0.50% FeCl3 (pH 2.03), reagent concentration 2.00%.
Where [29] appears, read: Test 2: 15% HCl + 0.50% of a 40% FeCl3 Aqueous Solution, reagent concentration 1.50%.
Where [30] appears, read: Test 2: 15% HCl + 0.50% of a 40% FeCl3 Aqueous Solution, reagent concentration 2.00%.
[31] abbreviates: Test 3: 50% water/CaCl2 + 10% 15% HCl + 0.50% FeCl3, reagent concentration 1.50%.
Where [32] appears, read: Test 3: 50% water/CaCl2 + 10% 15% HCl + 0.50% FeCl3, reagent concentration 2.00%.

In brackets after ≈: the same amount, converted by molar mass. Where two headings read alike, the source gives them in different places.

`CCC(C)=NO` [2-Butanone oxime]: the “Final Permeability” value was 34.1 md in data set [1] (Core 1), >5000 md in [1] (setting [12]) and 49.6 md in [1] (Core 3). Besides, the “NOEC (No Observable Effect Concentration) Skeletonema Costatum” value in the data set on Skeletonema Costatum (72 hours) was found to be 99.7 mg/L. The EC50 with Skeletonema Costatum (Skeletonema costatum, 72 h, read-out: Skeletonema Costatum EC50 72 hr) was 470 µg/mL (≈ 5.39 mM); in data set [3] (96 h, read-out: Scophthalamus maximus juvenile EC 50 96 hr) it was > 3000 µg/mL. Besides, the chromatographic logP in [2] (octanol/water) came out at 1.38. Besides, the “NOEC (No Observable Effect Concentration) Scophthalamus maximus juvenile” value in data set [3] (96 hours) turned out to be 1000 mg/L. In addition, the “NOEC (No Observable Effect Concentration) Acartia tonsa” value in the data set on Acartia tonsa (48 hours) stood at 8.9 mg/L. The LC50 at 48 h in [4] stood at 6930 µg/mL (≈ 79.6 mM).

For the molecule `Cl.NN` [Hydrazinium hydrochloride], the “Final Permeability” value is reported as 14.1 md in [1] (Core 1), >5000 md in data set [1] (setting [12]) and 6.8 md in data set [1] (Core 3). In addition, the “Biodegradability BOD28 day” value in [5] came to 84%. In addition, in data set [6], the “Residue Remaining” value was determined as 0.278 g. Moreover, the “Skeletonema Costatum EC50 24 hr” value with Skeletonema Costatum (24 hr) was found to be 0.38 µg/mL. The “Bioaccumulation Log Pow” value in data set [2] is on record as <0. Besides, the Abra alba toxicity in the data set with Abra alba is on record as 96 mg/L. Also, the hazard rating result in [7] is reported as “toxic by all routes”. The “Acartia tonsa LC 50 48 hr” value with Acartia tonsa (48 hr) worked out at 0.37 µg/mL.

`NN` [Hydrazine]: in [7], the hazard rating entry is given as “toxic to aquatic species”.

Take `NNC(=O)NN` [Carbohydrazide]: the EC50 in the data set on Skeletonema Costatum (Skeletonema costatum, 72 h; read-out: Skeletonema Costatum EC50 72 hr) worked out at 56.7 µg/mL (≈ 0.629 mM). The “Iron % reduced” value amounted to 1.8% in data set [8] (Test 1: 15% HCl + 0.50% FeCl3); 8.0% in data set [8] (setting [13]); 1.6% in [8] (setting [14]); 20.0% in data set [8] (setting [15]); 12.3% in data set [8] (setting [16]); 27.3% in data set [9] (setting [17]). The Iron % reduced in data set [9] (setting [18]) is reported as 38.5%; in data set [9] (setting [19]), 46.9%; in [9] (setting [20]) it was 0.8%; in [9] (setting [21]), 12.2%; in [9] (setting [22]) it was 29.8%; in data set [9] (setting [23]) it was 0.8%. The Iron % reduced came out at 13% in data set [9] (setting [24]), 15% in [9] (setting [25]) and 15% in [9] (setting [26]). The “Iron Content Fe+2” value was determined as 20 mg/L in [8] (Test 1: 15% HCl + 0.50% FeCl3); 90 mg/L in data set [8] (setting [13]); 20 mg/L in data set [8] (setting [14]); 160 mg/L in [8] (setting [15]); 90 mg/L in [8] (setting [16]); 390 mg/L in data set [9] (setting [17]). For the same molecule, the “Iron Content Fe+2” value turned out to be 550 mg/L in data set [9] (setting [18]); 670 mg/L in data set [9] (setting [19]); 10 mg/L in data set [9] (setting [20]); 160 mg/L in data set [9] (setting [21]); 390 mg/L in data set [9] (setting [22]); 10 mg/L in data set [9] (setting [23]). Moreover, the results for the “Iron Content Fe+2” value in [9] (setting [24]), in data set [9] (setting [25]) and in data set [9] (setting [26]) were 160 mg/L, 190 mg/L and 190 mg/L, respectively. Also, the hazard rating result in data set [7] was “harmful and an irritant”.

For `CCN(O)CC` [Diethylhydroxylamine, Diethylhydroxyl amine], the “bioaccumulation (Log Pow), literature value” in data set [10] was 0.43. Further, the “Iron % reduced” value in [8] (Test 1: 15% HCl + 0.50% FeCl3) worked out at 54.4%; in data set [8] (setting [13]), 66.4%; in data set [8] (setting [14]), 74.4%; in data set [8] (setting [15]) it was 88.8%; in [8] (setting [16]), 89.0%; in data set [9] (setting [17]), 65.7%. Besides, the Iron % reduced came to 73.5% in data set [9] (setting [18]); 75.5% in data set [9] (setting [19]); 84.3% in data set [9] (setting [27]); 89.2% in [9] (setting [28]); 34.3% in [9] (setting [20]); 48.0% in data set [9] (setting [21]). Further, the Iron % reduced in [9] (setting [29]) turned out to be 52.9%; in data set [9] (setting [30]) it was 83.3%; in [9] (setting [24]) it was 25%; in [9] (setting [25]), 42%; in data set [9] (setting [31]), 47%; in data set [9] (setting [32]), 61%. For the same molecule, the “Iron Content Fe+2” value in [8] (Test 1: 15% HCl + 0.50% FeCl3) came out at 620 mg/L; in data set [8] (setting [13]), 750 mg/L; in data set [8] (setting [14]), 930 mg/L; in data set [8] (setting [15]) it was 710 mg/L; in [8] (setting [16]) it was 650 mg/L; in data set [9] (setting [17]), 670 mg/L. Moreover, the “Iron Content Fe+2” value in [9] (setting [18]) came out at 750 mg/L; in data set [9] (setting [19]) it was 770 mg/L; in data set [9] (setting [27]), 860 mg/L; in data set [9] (setting [28]), 910 mg/L; in data set [9] (setting [20]), 350 mg/L; in [9] (setting [21]) it was 490 mg/L. In addition, the “Iron Content Fe+2” value turned out to be 540 mg/L in data set [9] (setting [29]); 850 mg/L in data set [9] (setting [30]); 310 mg/L in data set [9] (setting [24]); 520 mg/L in data set [9] (setting [25]); 590 mg/L in data set [9] (setting [31]); 760 mg/L in data set [9] (setting [32]). Further, in data set [11], the biodegradation result was “less than 60%”. Besides, in data set [7], the hazard rating result was “harmful and an irritant”.

As a reminder, the chromatographic logP is lipophilicity estimated from chromatographic retention. Low readings indicate lower lipophilicity, high ones higher lipophilicity.
